Counter-ions that a name gives are not always drawn.
Legend:
[1] = test system: Rattus norvegicus; test: Analgesic activity in po dosed Sprague-Dawley rat after 15 to 90 mins by tail flick test; type: functional
[2] = test system: Canis familiaris; test: Antianxiety activity in po dosed dog assessed as ataxia administered as single dose measured up to 24 hrs; type: functional; conditions: Canis lupus familiaris, read-out: MED
[3] = test system: Rattus norvegicus; test: Antipsychotic activity in rat assessed as reduction of methamphetamine-induced hyperactivity at 2.5 mg/kg, po administered prior to methamphetamine challenge relative to vehicle-treated control; type: functional; design: scale not given: the % may be the effect or the level left
[4] = test system: Felis catus; test: Hypnotic activity in cat assessed as increase in non-REM sleep time at 0.5 mg/kg administered orally through diet measured for 12 hrs by EEG analysis; type: functional; conditions: route oral
[5] = test system: Rattus norvegicus; test: Antianxiety activity in Long-Evans rat assessed as reduction in motor activity at 1 mg/kg, po after 2 hrs relative to vehicle-treated control; type: functional; design: scale not given: the % may be the effect or the level left
[6] = test system: Rattus norvegicus; test: Antipsychotic activity in rat assessed as reduction of methamphetamine-induced hyperactivity at 10 mg/kg, po administered prior to methamphetamine challenge relative to vehicle-treated control; type: functional; design: scale not given: the % may be the effect or the level left
[7] = test system: Mus musculus; test: Analgesic activity in po dosed mouse assessed as inhibition of acetic acid-induced writhing administered 30 mins prior to acetic acid challenge measured after 5 mins for 20 mins; type: functional
[8] = test system: Felis catus; test: Hypnotic activity in cat assessed as increase in total sleep time at 0.5 mg/kg administered orally through diet measured for 12 hrs by EEG analysis; type: functional; conditions: route oral
[9] = Acute toxicity in po dosed mouse; type: organism-based; conditions: in vivo
[10] = test system: Rattus norvegicus; test: Antianxiety activity in Long-Evans rat assessed as reduction in motor activity at 4 mg/kg, po after 2 hrs relative to vehicle-treated control; type: functional; design: scale not given: the % may be the effect or the level left
[11] = test system: Rhesus monkey; test: Antianxiety activity in po dosed rhesus monkey assessed as antiagressive behavior measured every hour post dosing; type: functional; conditions: Macaca mulatta, read-out: MED
[12] = test system: Mus musculus; test: Antianxiety activity in albino BALB/cJ mouse assessed as reduction in footshock-induced fighting behavior at 5 mg/kg, po after 30 to 90 mins; type: functional; design: scale not given: the % may be the effect or the level left
[13] = test system: Rattus norvegicus; test: Antisecretory activity in Sprague-Dawley rat assessed as decrease in acid output at 50 mg/kg, po administered 30 mins prior to pylorus ligation measured after 4 hrs relative to control; type: functional; design: scale not given: the % may be the effect or the level left
[14] = test system: Rattus norvegicus; test: Antianxiety activity in Long-Evans rat assessed as reduction in motor activity at 5 mg/kg, po after 2 hrs relative to vehicle-treated control; type: functional; design: scale not given: the % may be the effect or the level left
[15] = test system: Rattus norvegicus; test: Increase in pepsin concentration in Sprague-Dawley rat at 50 mg/kg, po administered 30 mins prior to pylorus ligation measured after 4 hrs relative to control; type: functional
[16] = test system: Rattus norvegicus; test: Antisecretory activity in Sprague-Dawley rat assessed as decrease in volume at 50 mg/kg, po administered 30 mins prior to pylorus ligation measured after 4 hrs relative to control; type: functional; design: scale not given: the % may be the effect or the level left
[17] = species: Rattus norvegicus; test: animal or person; type: functional; conditions: Charles River, route oral
Description: Antidiarrheal activity in Charles River rat assessed as inhibition of castor oil-induced diarrhea by measuring protected animals at 0.5 mg/kg, po administered 1 hr prior to castor oil challenge measured after 1 hr relative to vehicle-treated control

[18] = test system: Rattus norvegicus; test: Antisecretory activity in Sprague-Dawley rat assessed as decrease in acidity at 50 mg/kg, po administered 30 mins prior to pylorus ligation measured after 4 hrs relative to control; type: functional; design: scale not given: the % may be the effect or the level left
[19] = test system: Rattus norvegicus; test: Antisecretory activity in Sprague-Dawley rat assessed as decrease in pepsin output at 50 mg/kg, po administered 30 mins prior to pylorus ligation measured after 4 hrs relative to control; type: functional; design: scale not given: the % may be the effect or the level left
[20] = test system: Rattus norvegicus; test: Antipsychotic activity in rat assessed as reduction of methamphetamine-induced hyperactivity at 5 mg/kg, po administered prior to methamphetamine challenge relative to vehicle-treated control; type: functional; design: scale not given: the % may be the effect or the level left
[21] = test system: Mus musculus; test: Antianxiety activity in albino BALB/cJ mouse assessed as reduction in footshock-induced fighting behavior at 10 mg/kg, po after 30 to 90 mins; type: functional; design: scale not given: the % may be the effect or the level left
[22] = test system: Mus musculus; test: Analgesic activity in mouse assessed as inhibition of acetic acid-induced writhing at 40 mg/kg, po administered 30 mins prior to acetic acid challenge measured after 5 mins for 20 mins; type: functional
[23] = test system: Rattus norvegicus; test: Antianxiety activity in Long-Evans rat assessed as reduction in motor activity at 10 mg/kg, po after 2 hrs relative to vehicle-treated control; type: functional; design: scale not given: the % may be the effect or the level left
[24] = test system: Mus musculus; test: Antidepressant activity in po dosed mouse assessed as potentiation of DOPA-induced effect administered 4 hrs prior to DOPA challenge; type: functional; conditions: read-out: MED
[25] = test system: Rattus norvegicus; test: Antihypertensive activity in spontaneously hypertensive rat model assessed as reduction in blood pressure at 3 mg/kg, po after 24 hrs; type: functional; design: scale not given: the % may be the effect or the level left
[26] = test system: Rattus norvegicus; test: Antidiarrheal activity in Charles River rat assessed as inhibition of castor oil-induced diarrhea by measuring protected animals at 0.2 mg/kg, po administered 1 hr prior to castor oil challenge measured after 1 hr relative to vehicle-treated control; type: functional
[27] = test system: Rattus norvegicus; test: Antihypertensive activity in spontaneously hypertensive rat model assessed as reduction in blood pressure at 3 mg/kg, po after 3 hrs; type: functional; design: scale not given: the % may be the effect or the level left
[28] = test system: Rattus norvegicus; test: Antidiarrheal activity in Charles River rat assessed as inhibition of castor oil-induced diarrhea by measuring protected animals at 0.1 mg/kg, po administered 1 hr prior to castor oil challenge measured after 1 hr relative to vehicle-treated control; type: functional
[29] = test system: Mus musculus; test: Anticonvulsant activity in po dosed mouse assessed as dose required to protect 80% of animal measured after 1 to 4 hrs by audiogenic seizure test; type: functional
[30] = test system: Rattus norvegicus; test: Antihypertensive activity in spontaneously hypertensive rat model assessed as reduction in blood pressure at 0.3 mg/kg, po after 24 hrs; type: functional; design: scale not given: the % may be the effect or the level left
[31] = test system: Rattus norvegicus; test: Antihypertensive activity in spontaneously hypertensive rat model assessed as reduction in blood pressure at 0.3 mg/kg, po after 3 hrs; type: functional; design: scale not given: the % may be the effect or the level left
[32] = test system: Rattus norvegicus; test: Antianxiety activity in Long-Evans rat assessed as reduction in motor activity at 20 mg/kg, po after 2 hrs relative to vehicle-treated control; type: functional; design: scale not given: the % may be the effect or the level left
[33] = test system: Rattus norvegicus; test: Antihypertensive activity in spontaneously hypertensive rat model assessed as reduction in blood pressure at 1 mg/kg, po after 3 hrs; type: functional; design: scale not given: the % may be the effect or the level left
[34] = test system: Rattus norvegicus; test: Increase in methamphetamine-induced hyperactivity in rat at 5 mg/kg, po administered prior to methamphetamine challenge relative to vehicle-treated control; type: functional
[35] = test system: Mus musculus; test: Analgesic activity in mouse assessed as inhibition of acetic acid-induced writhing at 10 mg/kg, po administered 30 mins prior to acetic acid challenge measured after 5 mins for 20 mins; type: functional
[36] = test system: Rattus norvegicus; test: Antihypertensive activity in spontaneously hypertensive rat model assessed as reduction in blood pressure at 1 mg/kg, po after 24 hrs; type: functional; design: scale not given: the % may be the effect or the level left
[37] = test system: Rattus norvegicus; test: Antidiarrheal activity in Charles River rat assessed as inhibition of castor oil-induced diarrhea by measuring protected animals at 0.05 mg/kg, po administered 1 hr prior to castor oil challenge measured after 1 hr relative to vehicle-treated control; type: functional
[38] = test system: Rattus norvegicus; test: Antihypertensive activity in spontaneously hypertensive rat model assessed as reduction in blood pressure at 30 mg/kg, po after 24 hrs; type: functional; design: scale not given: the % may be the effect or the level left
[39] = test system: Rattus norvegicus; test: Antihypertensive activity in spontaneously hypertensive rat model assessed as reduction in blood pressure at 30 mg/kg, po after 3 hrs; type: functional; design: scale not given: the % may be the effect or the level left
[40] = test system: Rattus norvegicus; test: Antipsychotic activity in rat assessed as reduction of methamphetamine-induced hyperactivity at 20 mg/kg, po administered prior to methamphetamine challenge relative to vehicle-treated control; type: functional; design: scale not given: the % may be the effect or the level left
[41] = test system: Rattus norvegicus; test: Antihypertensive activity in spontaneously hypertensive rat model assessed as reduction in blood pressure at 10 mg/kg, po after 3 hrs; type: functional; design: scale not given: the % may be the effect or the level left
[42] = test system: Rattus norvegicus; test: Antihypertensive activity in spontaneously hypertensive rat model assessed as reduction in blood pressure at 10 mg/kg, po after 24 hrs; type: functional; design: scale not given: the % may be the effect or the level left

Row | Compound | minimal effective dose [2] [mg/kg] | Time [4] [min] | ED50 [7] [mg/kg] | Time [8] [min] | LD50 [9] [mg/kg] | minimal effective dose [11] [mg/kg] | Activity [12] [%] | Activity [14] [%] | inhibition in vivo at 0.5 mg/kg [17] [%] | Activity [20] [%] | Activity [21] [%] | further results
1 | CC1CCC2=C(C1)c1c(OC(=O)CCCN3CCOCC3)cc(C(C)CCCc3ccc(F)cc3)cc1OC2(C)C.Cl (stereo unspecified) | 10 | 39 | 6 | 16 | ≥ 1000 | 10 | 8 | – | – | – | – | ED50 [1]: 1.7 mg/kg; Activity [3]: 86%; Activity [5]: 68%; Activity [6]: 95%; Activity [10]: 93%
2 | C#CCN1CCC2=C(C1)c1c(OC(=O)CCCN3CCCCC3)cc(C(C)CCCc3ccc(F)cc3)cc1OC2(C)C.Cl (stereo unspecified) | 0.4 | 121 | 10.3 | 47 | 750 | 1 | – | 87 | 40 | 62 | 23 | Activity [13]: 56.1%; Activity [15]: 32%; Activity [16]: 24.9%; Activity [18]: 42.4%; Activity [19]: 1.9%
3 | Br.CC(CCCc1ccc(F)cc1)c1cc(O)c2c(c1)OC(C)(C)C1=C2C2CCN1CC2 (stereo unspecified) | 1 | – | – | – | ≥ 1000 | 1 | 23 | 23 | 10 | 4 | – | inhibition in vivo at 40 mg/kg [22]: 32%; Activity [23]: 46%; minimal effective dose [24]: 20 mg/kg
4 | CCCCCC(C)C(C)c1cc(O)c2c(c1)OC(C)(C)C1=C2CC(C)CC1 (stereo unspecified) | 1 | 122 | 3 | 62 | ≥ 1000 | 10 | 58 | 96 | – | 70 | 92 | ED50 [1]: 1.4 mg/kg; Activity [25]: 28%; inhibition in vivo at 0.2 mg/kg [26]: 80%; Activity [3]: 48%; Activity [27]: 37%; inhibition in vivo at 0.1 mg/kg [28]: 50%; Activity [29]: 10 mg/kg; Activity [30]: 12%; Activity [31]: 19%
5 | CC1CCC2=C(C1)c1c(O)cc(C(C)C(C)CCCc3ccc(F)cc3)cc1OC2(C)C (stereo unspecified) | 10 | – | – | – | 500 | – | – | – | – | – | 16 | Activity [25]: 5%; Activity [32]: 62%; Activity [33]: 9%; Activity [34]: 23%; Activity [27]: 33%; Activity [23]: 36%; inhibition in vivo at 10 mg/kg [35]: 32%; Activity [36]: 0%
6 | CCOC(=O)C1(c2ccccc2)CCN(CCC(C#N)(c2ccccc2)c2ccccc2)CC1 [DIPHENOXYLATE HYDROCHLORIDE] | – | – | – | – | – | – | – | – | – | – | – | inhibition in vivo at 0.2 mg/kg [26]: 95%; inhibition in vivo at 0.1 mg/kg [28]: 67%; inhibition in vivo at 0.05 mg/kg [37]: 46%
7 | C#CCN1CCC2=C(C1)c1c(O)cc(C(C)CCCCc3ccc(F)cc3)cc1OC2(C)C (stereo unspecified) | – | 7 | 48 | 61 | ≥ 1000 | – | 0 | 33 | 30 | – | – | Activity [38]: 0%; Activity [39]: 0%; Activity [6]: 50%; Activity [40]: 70%
8 | CC(CCCc1ccc(F)cc1)c1cc(O)c2c(c1)OC(C)(C)C1=C2CCC1 (stereo unspecified) | 10 | – | – | – | ≥ 1000 | 10 | – | 41 | 20 | 58 | 47 | Activity [41]: 3%; inhibition in vivo at 40 mg/kg [22]: 22%; Activity [42]: 30%

Source: ChEMBL document CHEMBL3272295, “Drugs derived from cannabinoids. 5. delta6a,10a-Tetrahydrocannabinol and heterocyclic analogs containing aromatic side chains” (J Med Chem, 1976)
